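Exposure lasted 48 hours, with cells grown in 96-well plates and compounds tested at five concentrations. GI50 is the concentration that inhibits growth by half. The concentration for full growth arrest is given as TGI.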
What was measured:
Assay in all cases: inhibition of tumour cell growth, NCI panel, 48 h
[1] = test system: NCI-H226 lung
[2] = test system: PC-3 prostate
[3] = test system: RPMI-8226 leukemia
[4] = test system: SF-268 CNS
[5] = test system: OVCAR-3 ovarian
[6] = test system: OVCAR-4 ovarian
[7] = test system: HT29 colon
[8] = test system: CAKI-1 renal
[9] = test system: T-47D breast
[10] = test system: HOP-92 NSCLC
[11] = test system: HCC-2998 colon
[12] = test system: SNB-75 CNS
[13] = test system: OVCAR-5 ovarian
[14] = test system: SW-620 colon
[15] = test system: K-562 leukemia
[16] = test system: MALME-3M melanoma
[17] = test system: UACC-62 melanoma
[18] = test system: SF-539 CNS
[19] = test system: UACC-257 melanoma
[20] = test system: UO-31 renal
[21] = test system: HS 578T breast
[22] = test system: NCI-H460 lung
[23] = test system: SN12C renal
[24] = test system: MCF7 breast
[25] = test system: IGROV1 ovarian
[26] = test system: SF-295 CNS
[27] = test system: SK-MEL-28 melanoma
[28] = test system: TK-10 renal
[29] = test system: M14 melanoma
[30] = test system: HCT-116 colon
[31] = test system: HCT-15 colon
[32] = test system: SNB-19 CNS
[33] = test system: MDA-MB-231 breast
[34] = test system: MOLT-4 leukemia
[35] = test system: HL-60(TB) leukemia
[36] = test system: U251 CNS
[37] = test system: HOP-62 NSCLC
[38] = test system: NCI-H23 lung
[39] = test system: LOX IMVI melanoma
[40] = test system: SK-OV-3 ovarian
[41] = test system: ACHN renal
[42] = test system: SK-MEL-2 melanoma
[43] = test system: COLO 205 colon
[44] = test system: CCRF-CEM leukemia
[45] = test system: DU-145 prostate
[46] = test system: KM12 colon
[47] = test system: NCI/ADR-RES ovarian
[48] = test system: SR leukemia
[49] = test system: OVCAR-8 ovarian
[50] = test system: MDA-MB-435
[51] = test system: RXF 393 renal
[52] = test system: SK-MEL-5 melanoma
[53] = test system: A549 NSCLC
[54] = test system: A498 renal
[55] = test system: NCI-H522 lung
[56] = test system: BT-549 breast
[57] = test system: 786-0 renal
[58] = test system: EKVX NSCLC

## Cc1ccc2c(n1)C(=O)C(Cl)=C(Nc1ccc(C)c(C)c1)C2=O
[1]
  GI50: 1.72 µM
  TGI: 5.92 µM
[2]
  GI50: 1.69 µM
  TGI: 12.7 µM
[3]
  GI50: 1.54 µM
  TGI: 4.7 µM
[4]
  GI50: 2.2 µM
  TGI: 6.51 µM
[5]
  GI50: 0.59 µM
  TGI: 1.89 µM
[6]
  GI50: 1.36 µM
  TGI: 2.81 µM
[7]
  GI50: 24.7 µM
  TGI: > 100 µM
[8]
  GI50: 1.59 µM
  TGI: 3.16 µM
[9]
  GI50: 0.975 µM
  TGI: 3.22 µM
[10]
  GI50: 1.98 µM
  TGI: 4.1 µM
[11]
  GI50: 2.12 µM
  TGI: 4.69 µM
[12]
  GI50: 1.73 µM
  TGI: 3.87 µM
[13]
  GI50: 2.23 µM
  TGI: 4.37 µM
[14]
  GI50: 2.07 µM
  TGI: 4.51 µM
[15]
  GI50: 2.04 µM
  TGI: > 100 µM
[16]
  GI50: 2.13 µM
  TGI: 4.22 µM
[17]
  GI50: 1.78 µM
  TGI: 4.36 µM
[18]
  GI50: 1.77 µM
  TGI: 3.23 µM
[19]
  GI50: 1.56 µM
  TGI: 2.98 µM
[20]
  GI50: 1.31 µM
  TGI: 2.71 µM
[21]
  GI50: 2.26 µM
  TGI: 6.47 µM
[22]
  GI50: 2.07 µM
  TGI: 12 µM
[23]
  GI50: 2.02 µM
  TGI: 5.27 µM
[24]
  GI50: 1.01 µM
  TGI: 2.91 µM
[25]
  GI50: 1.85 µM
  TGI: 4.1 µM
[26]
  GI50: 1.74 µM
  TGI: 3.51 µM
[27]
  GI50: 2.07 µM
  TGI: 4.28 µM
[28]
  GI50: 7.48 µM
  TGI: 19.7 µM
[29]
  GI50: 1.46 µM
  TGI: 2.96 µM
[30]
  GI50: 1.15 µM
  TGI: 2.64 µM
[31]
  GI50: 1.12 µM
  TGI: 2.88 µM
[32]
  GI50: 1.59 µM
  TGI: 4.07 µM
[33]
  GI50: 1.62 µM
  TGI: 3.81 µM
[34]
  GI50: 1.92 µM
  TGI: 6.59 µM
[35]
  GI50: 2.27 µM
  TGI: 5.7 µM
[36]
  GI50: 1.48 µM
  TGI: 2.96 µM
[37]
  GI50: 2.49 µM
  TGI: 11.2 µM
[38]
  GI50: 1.2 µM
  TGI: 3.95 µM
[39]
  GI50: 0.726 µM
  TGI: 3.42 µM
[40]
  GI50: 22 µM
  TGI: > 100 µM
[41]
  GI50: 1.68 µM
  TGI: 3.13 µM
[42]
  GI50: 2.54 µM
  TGI: 6.57 µM
[43]
  GI50: 17.2 µM
  TGI: 44.3 µM
[44]
  GI50: 2.46 µM
  TGI: 6.72 µM
[45]
  GI50: 1.72 µM
  TGI: 3.42 µM
[46]
  GI50: 2.96 µM
  TGI: > 100 µM
[47]
  GI50: 2.21 µM
  TGI: 8.26 µM
[48]
  GI50: 1.53 µM
  TGI: 5.75 µM
[49]
  GI50: 2.27 µM
  TGI: 6.32 µM
[50]
  GI50: 1.8 µM
  TGI: 3.76 µM
[51]
  GI50: 1.5 µM
  TGI: 2.85 µM
[52]
  GI50: 1.38 µM
  TGI: 2.74 µM
[53]
  GI50: 3.37 µM
  TGI: 17.3 µM
[54]
  GI50: 10.6 µM
  TGI: 25.3 µM
[55]
  GI50: 2 µM
  TGI: 4.9 µM
[56]
  GI50: 1.41 µM
  TGI: 2.79 µM

## CN(C)S(=O)(=O)c1ccc(-c2nc(C(Cl)Cl)nc3cc(-c4ccc(F)cc4)nn23)cc1
[1]
  GI50: 2.77 µM
  TGI: 25.6 µM
[2]
  GI50: 2.25 µM
  TGI: 8.56 µM
[4]
  GI50: 2.58 µM
  TGI: 11.1 µM
[5]
  GI50: 1.67 µM
  TGI: 4.01 µM
[6]
  GI50: 2.4 µM
  TGI: 8.14 µM
[7]
  GI50: 0.494 µM
  TGI: 2.15 µM
[8]
  GI50: 1.53 µM
  TGI: 4.71 µM
[9]
  GI50: 3.7 µM
  TGI: 56.9 µM
[10]
  GI50: 1.79 µM
  TGI: 5.75 µM
[57]
  GI50: 9.42 µM
  TGI: > 100 µM
[11]
  GI50: 1.43 µM
  TGI: 2.92 µM
[12]
  GI50: 5.37 µM
  TGI: 56.4 µM
[13]
  GI50: 2.23 µM
  TGI: 7.89 µM
[14]
  GI50: 0.891 µM
  TGI: 3.31 µM
[15]
  GI50: 0.929 µM
  TGI: > 100 µM
[16]
  GI50: 1.86 µM
  TGI: 4.05 µM
[17]
  GI50: 1.3 µM
  TGI: 2.94 µM
[18]
  GI50: 2.15 µM
  TGI: 7.55 µM
[19]
  GI50: 3.15 µM
  TGI: 16.6 µM
[20]
  GI50: 2.14 µM
  TGI: 7.26 µM
[21]
  GI50: 2.63 µM
  TGI: 7.33 µM
[22]
  GI50: 1.68 µM
  TGI: 4.32 µM
[23]
  GI50: 2.18 µM
  TGI: 27.7 µM
[24]
  GI50: 2.46 µM
  TGI: > 100 µM
[25]
  GI50: 1.44 µM
  TGI: 4.65 µM
[26]
  GI50: 1.77 µM
  TGI: 6.66 µM
[27]
  GI50: 2.01 µM
  TGI: 5.4 µM
[28]
  GI50: 3.11 µM
  TGI: 13.1 µM
[30]
  GI50: 0.986 µM
  TGI: 3.22 µM
[31]
  GI50: 1.13 µM
  TGI: 5.08 µM
[32]
  GI50: 2.28 µM
  TGI: 10.9 µM
[33]
  GI50: 1.75 µM
  TGI: 6.28 µM
[58]
  GI50: 1.94 µM
  TGI: 5 µM
[34]
  GI50: 0.888 µM
  TGI: > 100 µM
[35]
  GI50: 1.3 µM
  TGI: > 100 µM
[36]
  GI50: 1.05 µM
  TGI: 2.98 µM
[37]
  GI50: 2.08 µM
  TGI: 8.37 µM
[38]
  GI50: 1.45 µM
  TGI: 3.4 µM
[39]
  GI50: 1.15 µM
  TGI: 6.36 µM
[40]
  GI50: 2.15 µM
  TGI: 7.79 µM
[41]
  GI50: 0.925 µM
  TGI: 3.61 µM
[42]
  GI50: 2.89 µM
  TGI: 9.35 µM
[43]
  GI50: 1.62 µM
  TGI: 4.23 µM
[44]
  GI50: 1.87 µM
  TGI: > 100 µM
[45]
  GI50: 1.59 µM
  TGI: 6.27 µM
[46]
  GI50: 1.56 µM
  TGI: 4.88 µM
[47]
  GI50: 1.01 µM
  TGI: 4.66 µM
[48]
  GI50: 0.32 µM
  TGI: > 100 µM
[49]
  GI50: 1.74 µM
  TGI: 7.58 µM
[50]
  GI50: 1.32 µM
  TGI: 3.12 µM
[51]
  GI50: 1.4 µM
  TGI: 3.87 µM
[52]
  GI50: 1.97 µM
  TGI: 4.22 µM
[53]
  GI50: 1.88 µM
  TGI: 5.7 µM
[54]
  GI50: 1.76 µM
  TGI: 8.32 µM
[56]
  GI50: 2.29 µM
  TGI: 9.99 µM

From PubChem BioAssay (NCI)
